IC50 data for one molecule are collected here from paper PMC5011760, “Luteolin Attenuates Airway Mucus Overproduction via Inhibition of the GABAergic System” (Scientific Reports, 2016).

For orientation: IC50 means the midpoint of a concentration-inhibition curve. A lower IC50 goes with higher potency.

This experiment concerns T1, GABAA receptors (GABAAR) in A549 cells.
T1 construct: gene GABRA3; endogenous receptors of A549 cells, pentameric; exact subunit composition not determined (members = most abundant subunit mRNAs)
Description: whole-cell patch clamp, A549 cells. The class given is cell-based. The note with it: inhibition of currents evoked by 2.5 μM GABA; -60 mV, pH 7.4; authors call it allosteric modulator.

In turn, `O=c1cc(-c2ccc(O)c(O)c2)oc2cc(O)cc(O)c12` [luteolin, 3′,4′,5,7-tetrahydroxyflavone] showed a half-inhibitory concentration (IC50) of 8.2 µM.
